Data on one compound can be found in publication PMC10531071, “Furmonertinib, a Third-Generation EGFR Tyrosine Kinase Inhibitor, Overcomes Multidrug Resistance through Inhibiting ABCB1 and ABCG2 in Cancer Cells” (International Journal of Molecular Sciences, 2023).

The target in assay [1] is ABCB1 (P-glycoprotein; MDR1) (Homo sapiens, UniProt P08183). Briefly: vanadate-sensitive ATPase stimulation in High-Five insect cell membrane vesicles; also calcein-AM efflux inhibition in MDR19-HEK293 cells (IC50 […]). It counts as biochemical.
The target in the next assay is T1, ABCG2 (BCRP; MXR; ABCP) (Homo sapiens, UniProt Q9UNQ0).
T1 sequence (Q9UNQ0 1-655): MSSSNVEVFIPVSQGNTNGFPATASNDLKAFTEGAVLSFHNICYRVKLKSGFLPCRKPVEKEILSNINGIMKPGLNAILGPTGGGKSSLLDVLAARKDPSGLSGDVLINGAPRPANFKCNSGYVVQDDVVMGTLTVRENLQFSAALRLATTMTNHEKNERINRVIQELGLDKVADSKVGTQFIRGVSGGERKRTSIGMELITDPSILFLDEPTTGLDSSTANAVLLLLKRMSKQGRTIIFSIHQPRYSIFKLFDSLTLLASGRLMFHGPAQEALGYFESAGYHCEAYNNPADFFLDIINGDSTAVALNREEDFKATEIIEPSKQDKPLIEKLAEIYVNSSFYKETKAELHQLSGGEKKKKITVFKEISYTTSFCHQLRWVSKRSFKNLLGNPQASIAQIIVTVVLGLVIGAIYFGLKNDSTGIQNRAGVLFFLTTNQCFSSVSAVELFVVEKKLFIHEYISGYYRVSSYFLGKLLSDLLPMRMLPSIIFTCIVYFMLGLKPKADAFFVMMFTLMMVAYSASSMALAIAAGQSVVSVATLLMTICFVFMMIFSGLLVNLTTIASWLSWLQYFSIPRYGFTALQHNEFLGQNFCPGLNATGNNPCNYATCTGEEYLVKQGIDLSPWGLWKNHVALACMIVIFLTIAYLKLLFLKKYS
Briefly: vanadate-sensitive ATPase stimulation in High-Five insect cell membrane vesicles; also PhA efflux inhibition in R482-HEK293 cells (IC50 […]). It counts as biochemical.

Chain of ABCB1 (P-glycoprotein; MDR1) (P08183 whole entry): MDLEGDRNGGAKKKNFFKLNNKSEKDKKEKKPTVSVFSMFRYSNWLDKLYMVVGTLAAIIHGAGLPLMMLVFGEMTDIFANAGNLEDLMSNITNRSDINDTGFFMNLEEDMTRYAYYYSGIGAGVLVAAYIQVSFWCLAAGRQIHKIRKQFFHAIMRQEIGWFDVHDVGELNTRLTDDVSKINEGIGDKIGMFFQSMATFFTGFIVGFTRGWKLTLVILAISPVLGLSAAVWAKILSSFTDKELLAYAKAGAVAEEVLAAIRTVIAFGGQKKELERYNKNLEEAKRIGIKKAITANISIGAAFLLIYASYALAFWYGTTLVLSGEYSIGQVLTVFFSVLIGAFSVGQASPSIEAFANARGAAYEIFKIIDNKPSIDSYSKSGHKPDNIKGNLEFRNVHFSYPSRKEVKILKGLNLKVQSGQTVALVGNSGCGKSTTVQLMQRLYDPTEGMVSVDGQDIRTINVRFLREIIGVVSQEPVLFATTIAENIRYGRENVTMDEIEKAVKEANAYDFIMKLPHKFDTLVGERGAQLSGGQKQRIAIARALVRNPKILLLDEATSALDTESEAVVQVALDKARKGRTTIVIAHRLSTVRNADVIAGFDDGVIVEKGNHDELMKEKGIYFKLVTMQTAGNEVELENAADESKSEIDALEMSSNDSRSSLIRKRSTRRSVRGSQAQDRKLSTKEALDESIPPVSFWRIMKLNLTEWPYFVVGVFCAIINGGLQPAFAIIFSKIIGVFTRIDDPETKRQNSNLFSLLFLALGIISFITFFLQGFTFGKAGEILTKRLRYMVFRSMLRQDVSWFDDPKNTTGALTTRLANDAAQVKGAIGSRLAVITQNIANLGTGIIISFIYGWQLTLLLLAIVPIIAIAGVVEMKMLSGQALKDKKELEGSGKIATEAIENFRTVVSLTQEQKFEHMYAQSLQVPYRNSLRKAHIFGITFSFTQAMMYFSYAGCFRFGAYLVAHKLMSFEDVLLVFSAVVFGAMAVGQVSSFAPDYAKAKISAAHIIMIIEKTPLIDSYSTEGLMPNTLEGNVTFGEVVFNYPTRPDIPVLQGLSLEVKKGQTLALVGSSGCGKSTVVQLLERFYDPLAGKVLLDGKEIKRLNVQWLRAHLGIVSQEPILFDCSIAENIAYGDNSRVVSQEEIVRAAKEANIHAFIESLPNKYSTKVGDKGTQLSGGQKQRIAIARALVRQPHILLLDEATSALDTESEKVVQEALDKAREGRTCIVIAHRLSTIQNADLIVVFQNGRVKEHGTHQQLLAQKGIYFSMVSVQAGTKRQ

Take `C=CC(=O)Nc1cc(Nc2nccc(-c3cn(C)c4ccccc34)n2)c(OCC(F)(F)F)nc1N(C)CCN(C)C` [furmonertinib]: the EC50 in assay [1] is around 600 nM; at ABCG2 (BCRP; MXR; ABCP), around 3 nM.
